The results in this text go back to US9658212B2, “Process for evaluating active agent(s) capable of preserving the functionality of epithelial stem cells” (L'OREAL, priority 2012, dated 2017).

Assay [1] has as its system gene encoding carbonic anhydrase IX. Description: Transcriptomic analysis (RT-qPCR) of the carbonic anhydrase IX gene in hair bulbs cultured ex vivo. It is filed as cell-based, human. The conditions noted are these: whole hair bulbs, 4 hours incubation, normoxic conditions (21% dioxygen), compared with hypoxic conditions (3% dioxygen). The text has this: A second evaluation process may consist in carrying out a transcriptomic analysis of carbonic anhydrase IX, of which the expression of the corresponding gene is modified by a hypoxic signal, using the RT-qPCR technique, on keratin materials, for example on in vitro cultures of keratinocytes or hair bulbs isolated by microdissection and placed in culture ex vivo, under hypoxic conditions, and under normoxic conditions in the presence or absence of said active agent(s) to be tested, in order to study whether the active agent(s) is (are) capable of mimicking a hypoxic state.
This second process consists in carrying out a transcriptomic analysis of the gene encoding carbonic anhydrase IX, the expression of which is modified by a hypoxic signal, using the RT-qPCR technique, on hair bulbs isolated by microdissection at the level of the human scalp hypodermis and placed in culture ex vivo for 4 hours either under hypoxic conditions (3% dioxygen) or at 21% dioxygen, in the absence (control) or in the presence of diethyl pyridine-2,4 dicarboxylate.
For orientation: Real-time PCR tracks product formation cycle by cycle.

Assay [2] deals with keratinocytes from the outer sheath of human hair follicles. As to the kind of experiment: CFE (Colony-forming efficiency) test for keratinocytes (including epithelial stem cells). The settings on record: 21% dioxygen, 50 to 500 μM, 10 days culture. It is filed as cell-based. The text has this: It is possible to optionally add to these two evaluation processes a process aimed at establishing the impact of the active agent(s) capable of mimicking hypoxia on the quality of the epithelial stem cells. To do this, a CFE (Colony-forming efficiency) test can be carried out for keratinocytes (including epithelial stem cells), consisting in observing, respectively, under hypoxic conditions and under normoxic conditions in the presence or absence of active agent(s), the impact of the presence of the active agent(s) on the frequency of the cells capable of generating a cell clone within a given population, and also on the clonal morphology obtained, so as to thus establish their participation in the preservation of the functionality of the epithelial stem cells treated with the active agent(s). […]
Next, the cells of the outer epithelial sheath thus extracted from the hair follicles and dissected are subsequently seeded in a proportion of 1000 cells/culture dish under CFE conditions, on a layer of irradiated 3T3 fibroblasts. […] At the end of the clonogenic culture and after fixing (via 70% ethanol) and staining (incubation with eosin, rinsing and then incubation with BlueRAL 555) of the cell clones obtained, the morphology of the clones and of the cells making up these clones is analyzed.

For the next assay, the system named is HIF1-alpha protein. As to the kind of experiment: Western blotting of the level of expression/stabilization of the HIF1-alpha protein in outer sheath keratinocytes. Format: cell-based, human. The settings on record: keratinocyte cultures under normoxic conditions (21% oxygen). The source says:
This third example consists in carrying out an analysis of the level of expression/stabilization of the HIF1-alpha protein using the Western blotting technique as a basis. To summarise, under normoxic conditions, the HIF1-alpha protein is hydroxylated on a proline residue (reaction catalyzed by a prolyl hydroxylase), ubiquitinylated and then degraded by the proteasome. Under hypoxic conditions, the HIF1-alpha protein is not hydroxylated and its expression level is maintained. To characterize the effect of diethyl pyridine-2,4-dicarboxylate on the level of expression/stabilization of HIF1-alpha, a protein extract was prepared on cultures of keratinocytes derived from the outer sheath of human hair follicles maintained and placed in culture under hypoxic conditions or under normoxic conditions, in the absence or presence of diethyl pyridine-2,4-dicarboxylate. […] In this regard, it may be stated that the effect of diethyl pyridine-2,4-dicarboxylate under normoxic conditions mimics the effect of hypoxic conditions on the expression/stabilization of the HIF1-alpha protein.
Background: A western blot detects proteins with antibodies after separation by electrophoresis.

SMILES strings stand for the structures. “Also recorded” adds a separate entry of the source.

Consider `CCOC(=O)c1ccnc(C(=O)OCC)c1` [diethyl pyridine-2,4-dicarboxylate], for which the “expression of carbonic anhydrase 9 (molecular profile)” value in assay [1] is “induces a molecular profile similar to that induced by hypoxia”. Also, the number of clones entry in assay [2] (vs 21% dioxygen control conditions) is given as “does not significantly decrease”. Moreover, the clonal morphology entry in assay [2] (vs untreated 21% dioxygen control) is “less diffuse and less dense than the controls; also recorded: generates clones similar to those obtained under hypoxic conditions”. In addition, the “level of expression/stabilization of the HIF1-alpha protein” value in the assay with HIF1-alpha protein is recorded as “induces an increase in the amount of protein detected”.
